Results on 4 molecules are retold here after patent US10888556B2, “Method for treating myopia with an nsaid and an anti-muscarinic agent” (KAOHSIUNG CHANG GUNG MEMORIAL HOSPITAL, priority 2013, dated 2021).

Test [1] deals with human SSPC. As to the kind of experiment: Col2 and α-SMA expression in human SSPC treated with TGF-β2 (western blot). Conditions: in the presence of TGF-β2 (10 ng/ml), 1 mM atropine, 5 mM ketorolac, 1 mM diclofenac. The class given is cell-based. Here is the method: Different concentrations of TGF-β2 were added into 12-wells of SSPCs. After 24 hrs, the images of SSPC morphology were recorded. The total RNA was extracted for further analysis. A chamber slide culture for the immunofluorescence study was performed under the same condition.
The total protein from the sclera was extract by using RIPA protein extraction buffer. After homogenization of scleral tissue, the sample was centrifuged and the supernatant was collected. The protein concentration of each sample was measured using a BCA™ protein Assay Kit (Bio-Rad). Scleral protein samples were standardized and electrophoresed on 10% SDS-PAGE gel, then transferred to a polyvinylidene fluoride transfer membrane (Immun-Blot PVDF Membrane, BIO-RAD) at 21 V for 1 h. Membranes were blocked for 1 h at room temperature with 5% dry milk in PBS with 0.1% Tween and incubated at 4° C. overnight with primary antibodies. Membranes were washed and incubated with 1:10,000 goat anti-mouse or anti-rabbit IgG antibodies conjugated to horseradish peroxidase (Santa Cruz) for 1 h at room temperature and washed again. Membranes were developed by chemiluminescence with the reagent Lumigen TMA-6 (GE Healthcare UK limited, Buckinghumshire, UK) and images were captured with the LAS-4000 imaging system (Fujifilm, Tokyo, Japan). Protein bands were quantified using ImageJ software.
An in vitro study examining the effect of an anti-muscarinic agent and NSAID on Col2 and α-SMA expressions was performed using human SSPC.
On the technique in general: In western blotting, separated proteins are transferred to a membrane and probed.

For test [2], the system named is SSPCs. As to the kind of experiment: α-SMA and Col2 expression in SSPCs treated with TGF-β2, atropine/ketorolac combination. The class given is cell-based, mouse. Conditions: in the presence of TGF-β2 10 ng/ml, 0.5 mM atropine, 2.5 mM ketorolac, or combination.
Method: In brief, sclera from the mouse was obtained and was carefully dissected away from limbus and optic disc under a dissection microscope. After retina and choroid tissues were removed, the scleral tissue was cut into small pieces and digested with 1.5 mg/ml collagenase type I (Worthington Biochemical, Lakewood, USA) and 2 mg/ml of dispase (Roche, Basel, Switzerland) in PBS for 1 h at 37° C. to release individual cells. Individual cells were cultured in α-MEM (Invitrogen, Carlsbad, USA), supplemented with 20% lot-selected FBS (Equitech-Bio, Kerrville, USA), glutamine, penicillin/streptomycin and 100 mM 2-mercaptoethanol (Invitrogen) for 8 to 10 days at 5% CO2, 37° C.
Test [3] concerns TNF-α. In words: Expression of inflammation markers in choroids of FDM mice (real-time PCR). The class given is in vivo. Conditions: FDM eye of mice, one ketorolac eye drop once a day. How it is done: Total RNA from SSPCs or the choroid tissue in each eye was isolated using Trizol (Invitrogen, Carlsbad, Calif.) accordingly to the manufacture's protocol. qRT-PCR analysis was carried out using the iScript one-step RT-PCR kit with SYBR Green (Bio-Rad, Hercules, USA) on an ABI PRISM 7900 HT sequence detection system (Applied Biosystems, Foster City, USA), according to the manufacturer's instructions. […] Ct values of the control gene were subtracted from those of α-SMA and Col2 to provide a semiquantitative analysis, and fold change relative to no treatment was assessed.
On the day of the experiment (postnatal day [P] 21˜24), C57BL/6J mice were anesthetized by intraperitoneal injection of ketamine (90 mg/kg) and xylazine (10 mg/kg), and the diffuser eye patches were sutured to the skin around the right eye whereas the left eye served as a control. […] The mice were recovered and monitored on a warming pad until they were fully mobile. […]
An in vivo study evaluating the expression of inflammation markers in the choroid was evaluated using FDM Mice. […]
Background: Quantitative PCR measures a nucleic acid by following its amplification.

Test [4] concerns myopic patient. In words: Treating a myopia subject with NSAID (ketorolac ophthalmic solution). The class given is in vivo, human. Conditions: one patient, both eyes, after three months of about 0.5% ketorolac, one drop at night. Here is the method: The dose of ketorolac was about 0.5% weight ketorolac per unit dose (about 0.05 to 0.5 ml) and the affected eye was given one drop (about 0.05 to 0.5 ml) of ketorolac ophthalmic solution at night.

The subject of test [5] is SSPC. In words: Effect of TGF-β2 treatment on α-SMA and Col2 gene expression in SSPC (quantitative Real Time-PCR). The class given is cell-based, mouse. Conditions: 0.1 to 10 ng/ml TGF-β2 for 24 hrs, dose dependent. Here is the method:
The SSPCs were isolated and cultured as previously described by CL Tsai et al. (Identification of multipotent stem/progenitor cells in murine sclera. Invest Ophthalmol Vis Sci 52:5481-5487, 2011). In brief, sclera from the mouse was obtained and was carefully dissected away from limbus and optic disc under a dissection microscope. After retina and choroid tissues were removed, the scleral tissue was cut into small pieces and digested with 1.5 mg/ml collagenase type I (Worthington Biochemical, Lakewood, USA) and 2 mg/ml of dispase (Roche, Basel, Switzerland) in PBS for 1 h at 37° C. to release individual cells. […]
Different concentrations of TGF-β2 were added into 12-wells of SSPCs. After 24 hrs, the images of SSPC morphology were recorded. […]
Total RNA from SSPCs or the choroid tissue in each eye was isolated using Trizol (Invitrogen, Carlsbad, Calif.) accordingly to the manufacture's protocol. qRT-PCR analysis was carried out using the iScript one-step RT-PCR kit with SYBR Green (Bio-Rad, Hercules, USA) on an ABI PRISM 7900 HT sequence detection system (Applied Biosystems, Foster City, USA), according to the manufacturer's instructions. […] Ct values of the control gene were subtracted from those of α-SMA and Col2 to provide a semiquantitative analysis, and fold change relative to no treatment was assessed. […]

For the molecule `O=C(O)Cc1ccccc1Nc1c(Cl)cccc1Cl` [diclofenac], in test [1], the “expression of Col2” value is recorded as “suppressed” and the “expression of α-SMA” value is “suppressed”.

Take `CN1[C@@H]2CC[C@H]1C[C@@H](OC(=O)C(CO)c1ccccc1)C2` (stereo partly drawn) [atropine]: in test [1], the “expression of Col2” value was “suppressed” and the “expression of α-SMA” value is listed as “suppressed”.

As for `O=C(c1ccccc1)c1ccc2n1CCC2C(=O)O` (stereo not drawn) [ketorolac], in test [2], the “expression of Col2” value was “reduced” and the “expression of α-SMA” value is on record as “reduced”. For the same molecule, in test [3], the “level of TNF-α in the choroids” value is on record as “suppressed”. For the same molecule, the myopia progression result in test [4] is reported as “no myopia progression”. In addition, in test [1], the “expression of Col2” value is “suppressed” and the “expression of α-SMA” value is given as “suppressed”.

B1: TGF-β2: Transforming growth factor beta 2 (SEQ ID NO:5), ocular chondrogenic protein used to induce α-SMA and Col2 in SSPC (protein, listed as Homo sapiens)
chain: MHYCVLSAFLILHLVTVALSLSTCSTLDMDQFMRKRIEAIRGQILSKLKLTSPPEDYPEPEEVPPEVISIYNSTRDLLQEKASRRAAACERERSDEEYYAKEVYKIDMPPFFPSEAIPPTFYRPYFRIVRFDVSAMEKNASNLVKAEFRVFRLQNPKARVPEQRIELYQILKSKDLTSPTQRYIDSKVVKTRAEGEWLSFDVTDAVHEWLHHKDRNLGFKISLHCPCCTFVPSNNYIIPNKSEELEARFAGIDGTSTYTSGDQKTIKSTRKKNSGKTPHLLLMLLPSYRLESQQTNRRKKRALDAAYCFRNVQDNCCLRPLYIDFKRDLGWKWIHEPKGYNANFCAGACPYLWSSDTQHSRVLSLYNTINPEASASPCCVSQDLEPLTILYYIGKTPKIEQLSNMIVKSCKCS
modifications: Transforming growth factor beta-2 (TGF-beta-2)
B1: the α-SMA gene expression result in test [5] (p<0.0001) is listed as “statistically significant increase”. For the same molecule, the Col2 gene expression result in test [5] (p=0.011) is given as “statistically significant increase”.
